Assay results as given in PubChem BioAssay (NCI).
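Assay format: 96-well plates, 48-hour exposure. GI50 is the concentration that inhibits growth by half. At the TGI there is no net growth.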

Legend:
Assay in all cases: NCI anticancer screen, dose series, 48 h
HOP-62 NSCLC = system: HOP-62 NSCLC
SR leukemia = system: SR leukemia
SF-268 CNS = system: SF-268 CNS
DU-145 prostate = system: DU-145 prostate
TK-10 renal = system: TK-10 renal
HCT-116 colon = system: HCT-116 colon
SN12C renal = system: SN12C renal

SMILES: CN(C)CCSCCO
- TGI (HOP-62 NSCLC): > 100 µM
- TGI (SR leukemia): > 100 µM
- TGI (SF-268 CNS): > 100 µM
- TGI (DU-145 prostate): > 100 µM
- TGI (TK-10 renal): > 100 µM
- TGI (HCT-116 colon): > 100 µM
- TGI (SN12C renal): > 100 µM

SMILES: CCc1ccc2nccc(NCCCN(C)C)c2c1[N+](=O)[O-]
- TGI (HOP-62 NSCLC): > 100 µM
- TGI (SR leukemia): > 100 µM
- TGI (SF-268 CNS): > 100 µM
- TGI (DU-145 prostate): > 100 µM
- TGI (TK-10 renal): > 100 µM
- TGI (HCT-116 colon): > 100 µM
- TGI (SN12C renal): > 100 µM

SMILES: COc1cccc(N=N/C(=N\NC(=O)c2cc(Br)ccc2O)c2ccc(N(CCC#N)CCC#N)cc2OC)c1
- GI50 (SR leukemia): 71.4 µg/mL
- TGI (SR leukemia): > 150 µg/mL
- GI50 (SF-268 CNS): 21.9 µg/mL
- TGI (SF-268 CNS): 122 µg/mL
- GI50 (DU-145 prostate): 87.2 µg/mL
- TGI (DU-145 prostate): > 150 µg/mL
- GI50 (HCT-116 colon): 46.4 µg/mL
- TGI (HCT-116 colon): > 150 µg/mL
- GI50 (SN12C renal): 99.4 µg/mL
- TGI (SN12C renal): > 150 µg/mL

SMILES: CNC1=C(C(=O)OC)SC(c2ccccc2)(c2ccccc2)SC1
- GI50 (HOP-62 NSCLC): 39.4 µM
- TGI (HOP-62 NSCLC): > 100 µM
- GI50 (SR leukemia): 2.4 µM
- TGI (SR leukemia): 7.93 µM
- GI50 (SF-268 CNS): 18.9 µM
- TGI (SF-268 CNS): > 100 µM
- GI50 (DU-145 prostate): 20.4 µM
- TGI (DU-145 prostate): > 100 µM
- GI50 (TK-10 renal): 25.3 µM
- TGI (TK-10 renal): > 100 µM
- GI50 (HCT-116 colon): 9.22 µM
- TGI (HCT-116 colon): > 100 µM
- GI50 (SN12C renal): 24 µM
- TGI (SN12C renal): > 100 µM

SMILES: Cc1cc(C)c(S(=O)(=O)N(CCc2cccc(Br)c2)Cc2ccc(-c3cccc(S(C)(=O)=O)c3)cc2)c(C)c1
- GI50 (HOP-62 NSCLC): > 100 µM
- TGI (HOP-62 NSCLC): > 100 µM
- GI50 (SR leukemia): > 100 µM
- TGI (SR leukemia): > 100 µM
- GI50 (SF-268 CNS): > 100 µM
- TGI (SF-268 CNS): > 100 µM
- GI50 (DU-145 prostate): > 100 µM
- TGI (DU-145 prostate): > 100 µM
- GI50 (TK-10 renal): > 100 µM
- TGI (TK-10 renal): > 100 µM
- GI50 (HCT-116 colon): > 100 µM
- TGI (HCT-116 colon): > 100 µM
- GI50 (SN12C renal): > 100 µM
- TGI (SN12C renal): > 100 µM

SMILES: Cc1ccc(Nc2cc(C)nc(NCCCNc3ccnc4cc(Cl)ccc34)n2)cc1
- GI50 (HOP-62 NSCLC): 1.38 µM
- TGI (HOP-62 NSCLC): 2.78 µM
- GI50 (SF-268 CNS): 1.52 µM
- TGI (SF-268 CNS): 3.14 µM
- GI50 (DU-145 prostate): 1.97 µM
- TGI (DU-145 prostate): 4.14 µM
- GI50 (TK-10 renal): 1.81 µM
- TGI (TK-10 renal): 3.29 µM
- GI50 (HCT-116 colon): 1.09 µM
- TGI (HCT-116 colon): 2.81 µM
- GI50 (SN12C renal): 1.49 µM
- TGI (SN12C renal): 3.11 µM

SMILES: Fc1ccc2c(c1)C1=C(CO2)C(c2ccc(Cl)cc2)NC(=S)N1 (configuration not stated)
- GI50 (SR leukemia): 13 µM
- TGI (SR leukemia): 50.3 µM
- GI50 (DU-145 prostate): 28 µM
- TGI (DU-145 prostate): > 100 µM
- GI50 (TK-10 renal): 59.1 µM
- TGI (TK-10 renal): > 100 µM
- GI50 (SN12C renal): 17.7 µM
- TGI (SN12C renal): 40.2 µM

SMILES: Clc1cc(-c2ccccc2)nc2ccccc12
- TGI (HOP-62 NSCLC): > 100 µM
- TGI (SF-268 CNS): > 100 µM
- TGI (DU-145 prostate): > 100 µM
- TGI (TK-10 renal): 71.6 µM
- TGI (HCT-116 colon): > 100 µM
- TGI (SN12C renal): > 100 µM

SMILES: Clc1ccc(CNc2nccc(-c3cnn4ncccc34)n2)cc1
- GI50 (HOP-62 NSCLC): 7.59 µM
- TGI (HOP-62 NSCLC): > 25 µM
- GI50 (SF-268 CNS): 7.25 µM
- TGI (SF-268 CNS): > 22.7 µM
- GI50 (DU-145 prostate): 8.73 µM
- TGI (DU-145 prostate): > 25 µM
- GI50 (TK-10 renal): 8.71 µM
- TGI (TK-10 renal): > 23.5 µM
- GI50 (HCT-116 colon): 7.92 µM
- TGI (HCT-116 colon): > 25 µM
- GI50 (SN12C renal): 7.54 µM
- TGI (SN12C renal): > 25 µM

SMILES: O=C1c2ccccc2-c2c1c1ccc([N+](=O)[O-])cc1c(=O)n2CCCNCCO
- GI50 (HOP-62 NSCLC): 0.0408 µM
- TGI (HOP-62 NSCLC): 0.544 µM
- GI50 (SR leukemia): 0.0355 µM
- TGI (SR leukemia): 1.78 µM
- GI50 (SF-268 CNS): 0.148 µM
- TGI (SF-268 CNS): 1.99 µM
- GI50 (TK-10 renal): 1.37 µM
- TGI (TK-10 renal): 4.1 µM
- GI50 (HCT-116 colon): 0.0612 µM
- TGI (HCT-116 colon): 0.441 µM
- GI50 (SN12C renal): 0.287 µM
- TGI (SN12C renal): 2.07 µM

SMILES: N#C/C(=C\c1c(-c2ccccc2)[nH]c2ccccc12)C(=O)c1ccccc1
- GI50 (HOP-62 NSCLC): 16.3 µM
- TGI (HOP-62 NSCLC): > 100 µM
- GI50 (SF-268 CNS): 5.73 µM
- TGI (SF-268 CNS): 58.9 µM
- GI50 (DU-145 prostate): 5.22 µM
- TGI (DU-145 prostate): > 100 µM
- GI50 (TK-10 renal): 11.1 µM
- TGI (TK-10 renal): 86.9 µM
- GI50 (HCT-116 colon): 5.29 µM
- TGI (HCT-116 colon): > 100 µM
- GI50 (SN12C renal): 5.66 µM
- TGI (SN12C renal): > 100 µM

SMILES: COc1ccc(-c2ccc(-c3ccc(C(=N)N)cn3)o2)cc1Cl
- GI50 (HOP-62 NSCLC): 3.68 µM
- TGI (HOP-62 NSCLC): 14.4 µM
- GI50 (SF-268 CNS): 2.67 µM
- TGI (SF-268 CNS): 8.38 µM
- GI50 (DU-145 prostate): 3.45 µM
- TGI (DU-145 prostate): 11.3 µM
- GI50 (TK-10 renal): 3.19 µM
- TGI (TK-10 renal): 9.47 µM
- GI50 (SN12C renal): 1.77 µM
- TGI (SN12C renal): 3.45 µM

SMILES: FC(F)(F)c1cccc2c(SCCc3n[nH]c(=S)o3)ccnc12
- GI50 (HOP-62 NSCLC): 94.2 µM
- TGI (HOP-62 NSCLC): > 100 µM
- GI50 (SF-268 CNS): 85.6 µM
- TGI (SF-268 CNS): > 100 µM
- GI50 (DU-145 prostate): 78.4 µM
- TGI (DU-145 prostate): > 100 µM
- GI50 (TK-10 renal): 66.6 µM
- TGI (TK-10 renal): > 100 µM
- GI50 (HCT-116 colon): 44.4 µM
- TGI (HCT-116 colon): > 100 µM
- GI50 (SN12C renal): 51.4 µM
- TGI (SN12C renal): > 100 µM

SMILES: Cc1cnccc1N=Nc1ccc(N(C)C)cc1
- TGI (HOP-62 NSCLC): > 100 µM
- TGI (SF-268 CNS): 56.5 µM
- TGI (DU-145 prostate): > 100 µM
- TGI (TK-10 renal): 50.9 µM
- TGI (HCT-116 colon): > 100 µM
- TGI (SN12C renal): 72.6 µM

SMILES: O=C(COc1cccc(/C=C2\Oc3ccc4ccccc4c3C2=O)c1)c1ccc(Cl)cc1
- GI50 (HOP-62 NSCLC): 7.09 µM
- TGI (HOP-62 NSCLC): 32.4 µM
- GI50 (SF-268 CNS): 23.1 µM
- TGI (SF-268 CNS): 79.5 µM
- GI50 (DU-145 prostate): 39.6 µM
- TGI (DU-145 prostate): > 100 µM
- GI50 (TK-10 renal): > 100 µM
- TGI (TK-10 renal): > 100 µM
- GI50 (HCT-116 colon): 2.97 µM
- TGI (HCT-116 colon): 10.5 µM
- GI50 (SN12C renal): 16.8 µM
- TGI (SN12C renal): 37.5 µM

SMILES: CN(CC(=O)O)Cc1oc(CO)cc(=O)c1O
- TGI (HOP-62 NSCLC): > 100 µM
- TGI (SR leukemia): > 100 µM
- TGI (SF-268 CNS): > 100 µM
- TGI (TK-10 renal): > 100 µM
- TGI (HCT-116 colon): > 100 µM
- TGI (SN12C renal): > 100 µM

SMILES: C=C(CNC(=O)c1ccccc1)c1ccc(C(=O)Nc2ccccc2N)cc1
- GI50 (HOP-62 NSCLC): 63.7 µM
- TGI (HOP-62 NSCLC): > 100 µM
- GI50 (SF-268 CNS): 11.7 µM
- TGI (SF-268 CNS): > 100 µM
- GI50 (DU-145 prostate): 4.08 µM
- TGI (DU-145 prostate): > 100 µM
- GI50 (TK-10 renal): 2.12 µM
- TGI (TK-10 renal): 13.6 µM
- GI50 (HCT-116 colon): 1.6 µM
- TGI (HCT-116 colon): 15.2 µM
- GI50 (SN12C renal): 1.09 µM
- TGI (SN12C renal): 8.93 µM
